These results are taken from patent US12285421B2, “Uses of a 5-HT4 receptor agonist” (SUVEN LIFE SCIENCES LIMITED, priority 2018, dated 2025).

Assay [1] relates to ovariectomized female Wistar rats. The assay can be described thus: Object recognition task, in vivo model for dementia due to menopause. On the set-up: species or system rat. Conditions: ~12 months after surgery, dosed 60 min prior to trial-1, FIG. 1.
Method: Bilateral ovariectomy surgery was carried out in 7-8 weeks old female rats. Briefly, animals were anesthetized using Avertin (2,2,2-tri bromo ethanol) at 150 mg/kg, i.p. and were lay down on the surgery table. A midline incision was given on the dorsal region below the rib cage and 1 cm lateral to the either side of midline, a small incision was given on fascia to locate the adipose fat supporting the ovaries. By slowly pulling out the fat tissue, the ovary was identified and excised following the uterine horn ligation with silk sutures. Fascia was also covered with sutures and the similar procedure was repeated on the other side. Superficial skin layers were sutured and gentamicin (15 mg/kg, s.c.) was given as antibiotic and meloxicam (1 mg/kg, i.m.) as analgesic with povidone iodine applied on superficial skin layers at last. Episodic memory which is a memory of autobiographical events contextual in relation to time, place etc. was assessed ˜12 months after the surgery using object recognition task. On experiment day 1, rats were transferred to experimental room for acclimatization. On experiment day 2, all groups of animals were habituated to their respective test arenas for a period of 30 min prior to trial-1. […] Discriminative index (b−a3/b+a3) was calculated and compared among the groups.
In assay [2] the test system is Male Wistar rats. Nature of the assay: Dominant Submissive Model (DSM) for depression. In kind it is in vivo, rat. The note with it: 3 mg/kg, p.o., submissive rats treated, significance in 5th week (p<0.05), FIG. 4.
Method: A total of 220 male Wistar rats (110 pairs) of ˜150-200 g weight were selected. The animals were randomized on the basis of body weight and matched for body weight, pair wise. The pairs were habituated to the testing apparatus and milk for a period of 5 min per day for 5 days (first week). The animals were housed such that these pairs met only during the trial time. Each pair was given equal access to milk containing 9% sucrose in a beaker (10 mL), which was placed in an opening on the floor at the midpoint of the tunnel. During the second week, time spent in drinking the milk by a pair of rats was recorded and scored for a period of 5 min. Once the 5 min period was over, the rat pair was returned to their respective home cages.
Pairs, which met the above criteria were selected and randomized based on the dominance levels. Both the dominant and submissive animals of the control group were treated with vehicle (sterile water, 4 mL/kg, p.o.). […] During the test period (three weeks), time spent in drinking the milk was recorded for each animal of a pair for a period of 5 min. […] Dominance level (the average of difference in daily drinking score between the dominant and submissive partners during the testing period) was analyzed using repeated measure one way ANOVA followed by Tukey's test against its dominance level during 2nd week (FIG. 4).
The subject of a further assay is serotonin. The assay can be described thus: In vivo brain microdialysis, serotonin modulation in ventral hippocampus. The note with it: Compound-1 3 mg/kg, p.o. alone, rat ventral hippocampus. The text has this: Incorrect probe placement was considered as criteria to reject the data from animal.
The subject of assay [3] is Male Wistar rats. Nature of the assay: Object recognition task (NORT), MK-801 induced cognitive impairment. The note with it: 0.3 and 1 mg/kg, p.o., FIG. 3.
Method: During the familiarization phase, (T1), the rats were placed individually in the arena for 3 minutes, in which two identical objects (a1 and a2) were positioned 10 cm from the wall. Ninety minutes after T1, choice phase was performed. Rats were placed in the same arena as they were placed in T1 trial. During the choice phase (T2) rats were allowed to explore the arena for 3 minutes in presence of a copy of familiar object (a3) and one novel object (b).

As for `COCCCN1CCC(c2nnc(-c3nn(C(C)C)c4ccccc34)o2)CC1.O=C(O)C(=O)O` [Compound-1, Isopropyl-3-{5-[1-(3-methoxypropyl)piperidin-4-yl]-[1,3,4]oxadiazol-2-yl}-1H-indazole oxalate], the “object recognition memory deficits” value in assay [1] is recorded as “reversed”. In the assay with Male Wistar rats [2], the dominance levels entry is recorded as “decreased”. Besides, the “increase in hippocampal serotonin levels above pre-dose levels” value in the assay with serotonin stood at 22%. Moreover, in the assay with Male Wistar rats [3], the “MK-801 induced memory deficit” value is listed as “reversed”.
